Laboratory results: publication PMC3465557, “Mixed antagonistic effects of the ginkgolides at recombinant human ρ1 GABAC receptors” (Neuropharmacology, 2012)

Experiments:
Type in all cases: cell-based
[1] = molecular target: T1, recombinant human ρ1 GABAC receptors (Homo sapiens, UniProt P24046); test: GABA concentration–response curves in the presence and absence of ginkgolides, two-electrode voltage clamp in Xenopus oocytes; details: for type of antagonism: from GABA concentration–response and inhibition curves
T1 construct: expressed in transfected cells; host or cells: Xenopus laevis oocytes (cRNA injection)
T1 sequence (P24046 22-479): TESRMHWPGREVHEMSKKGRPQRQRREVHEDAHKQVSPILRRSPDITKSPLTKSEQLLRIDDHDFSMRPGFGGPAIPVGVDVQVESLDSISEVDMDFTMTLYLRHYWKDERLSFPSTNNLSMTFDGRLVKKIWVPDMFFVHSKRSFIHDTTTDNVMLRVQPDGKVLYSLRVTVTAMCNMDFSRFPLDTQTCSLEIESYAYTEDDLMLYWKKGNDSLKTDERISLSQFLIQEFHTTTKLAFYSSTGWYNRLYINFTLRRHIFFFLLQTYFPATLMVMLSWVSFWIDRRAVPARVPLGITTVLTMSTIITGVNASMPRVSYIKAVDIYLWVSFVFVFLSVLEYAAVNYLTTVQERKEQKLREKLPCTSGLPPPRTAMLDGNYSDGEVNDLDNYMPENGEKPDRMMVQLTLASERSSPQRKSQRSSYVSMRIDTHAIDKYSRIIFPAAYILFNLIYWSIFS
Protocol: (§1) Human ρ1 GABAC receptor subunit cDNA was linearized using the restriction enzyme Xba 1 and transcribed using the “mMESSAGE mMACHINE” kit (Ambion Inc., Austin, TX, USA). RNA (10 ng/50 nl) was injected into the cytoplasm of defollicated oocytes using a 15–20 μm diameter tip glass micropipette Nanoject injector (Drummond Scientific Co., Broomali, PA, USA). The oocytes were incubated for 2–7 days at 18 °C in ND96 buffer with a twice-daily change of buffer.
(§2) Whole-cell currents from homomeric ρ1 GABAC receptors expressed in oocytes were recorded using two-electrode voltage clamp. Recording microelectrodes were fabricated with a micropipette puller (Narishige Scientific Instrument Lab, Tokyo, Japan) and filled with 3 M KCl solution. Oocytes were clamped at −60 mV and continuously superfused with ND96 buffer. […] […]. Co-applications of ginkgolides were interleaved with test applications of GABA alone to monitor the response throughout the experiment. […] A washout period of 3–5 min was allowed between each application.
(§3) Analysis and curve fitting was performed using GraphPad Prism v3.02 (GraphPad Software, San Diego, California, USA). […] […]. […] Unless otherwise noted, parameters were calculated from individual oocytes and then averaged.

[2] = molecular target: T1, recombinant human ρ1 GABAC receptors; test: Inhibition curves: ginkgolides co-applied with a fixed GABA concentration, two-electrode voltage clamp in Xenopus oocytes
Protocol: as §1, §2, §3

[3] = molecular target: T1, recombinant human ρ1 GABAC receptors; test: Use-dependence: repeated co-applications with GABA during extended incubation of ginkgolide; details: for use-dependence: repeated co-applications
Protocol: as §2
Fig. 5 Use-dependent effect in the antagonism of ρ1 GABAC receptors by ginkgolides. A. Examples of currents recorded during repeated co-applications of GABA and ginkgolides. […] Each application was separated by a 3-min interval. […]. […] Overall, there was no obvious evidence for use-dependent inhibition by the ginkgolides.

[4] = molecular target: T1, recombinant human ρ1 GABAC receptors; test: Fit of kinetic schemes 1-4 to equilibrium GABA concentration–response curves
Excerpt: The concentration–response curves were fitted with the different mechanisms of inhibition using a least squares non-linear regression in GraphPad Prism.
The mechanism used (Fig. 7, Scheme 1) is that of [Amin and Weiss (1996)], where there are five equivalent agonist binding sites and three sites need to be occupied to activate the receptor, leading to a single open state. […] This assumes five equivalent agonist binding sites but only three are required to be occupied to activate (open) the channel pore. All subsequent kinetic schemes are derivatives of the linear scheme, by incorporating different possible mechanisms for antagonism by ginkgolides. These are drawn from the cyclic mixed-antagonism mechanism described by [Smart and Constanti (1986)]. Scheme 2 and scheme 3 both assume that ginkgolide binds to a single site in the receptor complex. […] For scheme 4, the equilibrium between the fully-liganded closed and open states is removed, which allows for the possibility that the ginkgolide binds to a separate site in the closed state compared to the open state.
Initially, a cyclic allosteric mechanism (Fig. 7, scheme 2) similar to that of [Smart and Constanti (1986)] was fit to the data. This scheme assumes a single binding site on the receptor complex that has an allosteric effect on all rate constants in the reaction mechanism. The scheme was fitted to the data allowing the agonist equilibrium constant, Ka, to be related to the equilibrium constant in the presence of ginkgolide, Ka′ by a constant ratio, R = Ka/Ka′. Similarly, the opening equilibrium constants E and E′ were related by the ratio, S = E/E′. […] As a test of the mechanism, the parameters obtained from the fit were used to predict the inhibition curves (Fig. 8D–F).
This effectively means that ginkgolide is binding at two separate sites. […] Scheme 4 is therefore functionally similar to scheme 2 with E′ having a value close to zero.

[5] = molecular target: T1, recombinant human ρ1 GABAC receptors; test: Inhibition and recovery time when ginkgolide is co-applied during the plateau of the GABA-activated current
Protocol: as §2
The recovery time from inhibition (measured as the 10–90% rise interval) was determined from the current responses obtained when ginkgolides A, B and C were co-applied during the plateau of the GABA-activated current (Fig. 6). […].
Fig. 6 Recovery time from ginkgolide inhibition.

[6] = Hill coefficient of GABA curve with 10 μM antagonist
[7] = Hill coefficient of GABA curve with 30 μM antagonist
[8] = Hill coefficient of GABA curve with 100 μM antagonist
[9] = in the presence of 10 μM ginkgolide
[10] = in the presence of 30 μM ginkgolide
[11] = in the presence of 100 μM ginkgolide

C[C@@H]1C(=O)O[C@H]2C[C@@]34[C@H]5C[C@@H](C(C)(C)C)[C@]36[C@@H](OC(=O)[C@@H]6O)O[C@@]4(C(=O)O5)[C@]21O [Ginkgolide A, ginkgolide A]
GABA + Ant nH [1, 6]: 1.98 ± 0.12
GABA + Ant nH [1, 7]: 2.25 ± 0.04
GABA + Ant nH [1, 8]: 2.60 ± 0.22
type of antagonism [1]: mixed antagonists
fold increase in the GABA EC50 [1, 9]: 1.9 fold
fold increase in the GABA EC50 [1, 10]: 2.3 fold
fold increase in the GABA EC50 [1, 11]: 2.5 fold
Max. GABA response ([1]; with 10 μM antagonist): 94.78 ± 0.54 %
Max. GABA response ([1]; with 30 μM antagonist): 91.44 ± 0.80 %
Max. GABA response ([1]; with 100 μM antagonist): 85.66 ± 1.34 %
nH of inhibition curve ([2]; 0.5 μM GABA): −0.99 ± 0.08
nH of inhibition curve ([2]; 1.2 μM GABA): −0.82 ± 0.07
nH of inhibition curve ([2]; 3.0 μM GABA): −0.61 ± 0.03
nH of inhibition curve ([2]; 10 μM GABA): −0.73 ± 0.04
IC50 ([2]; IC50, 0.5 μM GABA): 5.74 ± 0.17 µM
IC50 ([2]; IC50, 1.2 μM GABA): 42.3 ± 5.76 µM
IC50 ([2]; IC50, 3.0 μM GABA): 182 ± 12.6 µM
IC50 ([2]; IC50, 10 μM GABA): 874 ± 108 µM
use-dependence ([3]; 5 μM ginkgolide, 1 μM GABA): not obviously use-dependent
inhibition at 5 µM ([3]; read-out: level of inhibition): 33.2 ± 1.4%
Kd ([4]; Kb0, Scheme 2, calculated): 1.3 µM
Kd ([4]; Kb0, Scheme 3, calculated): 1.5 µM
Kd ([4]; Kb0, Scheme 4, calculated): 1.3 µM
Kd ([4]; Kb3, Scheme 2, calculated): 7.7 µM
Kd ([4]; Kb3, Scheme 3, calculated): 6790 µM
Kd ([4]; Kb3, Scheme 4, printed with ±SE): 7.7 ± 1.4 µM
Kd ([4]; Kb4 (equilibrium constant of ginkgolide, open state), Scheme 2, fitted, Ka fixed 3.2 μM, E fixed 11): 19.7 ± 3.9 µM
Kd ([4]; Kb4 (equilibrium constant of ginkgolide, open state), Scheme 3, fitted, Ka fixed 3.2 μM, E fixed 11): 611 ± 89 µM
Kd ([4]; Kb4 (equilibrium constant of ginkgolide, open state), Scheme 4, fitted, Ka fixed 3.2 μM, E fixed 11): 19.7 ± 3.9 µM
E′ (opening equilibrium constant with ginkgolide bound) ([4]; Scheme 2, calculated): 4.3
Ka′ (agonist equilibrium constant with ginkgolide bound) ([4]; Scheme 2, calculated): 5.7 µM
R (= Ka/Ka′) ([4]; Scheme 2, fitted): 0.56 ± 0.03
S (= E/E′) ([4]; Scheme 2, fitted): 2.6 ± 0.2
E′ (opening equilibrium constant with ginkgolide bound) ([4]; Scheme 3, calculated): 122
Ka′ (agonist equilibrium constant with ginkgolide bound) ([4]; Scheme 3, calculated): 53.3 µM
R (= Ka/Ka′) ([4]; Scheme 3, fitted): 0.06 ± 0.05
S (= E/E′) ([4]; Scheme 3, fitted): 0.09 ± 0.22
Ka′ (agonist equilibrium constant with ginkgolide bound) ([4]; Scheme 4, calculated): 5.7 µM
R (= Ka/Ka′) ([4]; Scheme 4, fitted): 0.55 ± 0.03
Recovery time (10–90% rise interval) ([5]; 1 μM GABA, 5 μM ginkgolide): 48.4 ± 5.7 s
inhibition at 5 µM ([5]; 1 μM GABA, 5 μM ginkgolide): 33.8 ± 3.4%
Recovery time (10–90% rise interval) ([5]; 3 μM GABA, 5 μM ginkgolide): 14.3 ± 4.6 s
inhibition at 5 µM ([5]; 3 μM GABA, 5 μM ginkgolide): 15.9 ± 1.6%
Recovery time (10–90% rise interval) ([5]; 3 μM GABA, 50 μM ginkgolide): 18.4 ± 3.4 s
inhibition at 50 µM ([5]; 3 μM GABA, 50 μM ginkgolide): 21.4 ± 1.9%

ginkgolide B
GABA + Ant nH [1, 6]: 1.97 ± 0.10
GABA + Ant nH [1, 7]: 1.83 ± 0.06
GABA + Ant nH [1, 8]: 1.61 ± 0.05
type of antagonism [1]: mixed antagonists
fold increase in the GABA EC50 [1, 9]: 3.2 fold
fold increase in the GABA EC50 [1, 10]: 4.7 fold
fold increase in the GABA EC50 [1, 11]: 7.5 fold
Max. GABA response ([1]; with 10 μM antagonist): 80.65 ± 2.18 %
Max. GABA response ([1]; with 30 μM antagonist): 75.12 ± 1.39 %
Max. GABA response ([1]; with 100 μM antagonist): 69.56 ± 2.48 %
fold more potent than ginkgolide A ([2]; 0.5 μM GABA): approximately 7.7 fold
fold more potent than ginkgolide C ([2]; 0.5 μM GABA): ~1.1 fold
nH of inhibition curve ([2]; 0.5 μM GABA): −0.87 ± 0.05
fold more potent than ginkgolide A ([2]; 1.2 μM GABA): ~18 fold
fold more potent than ginkgolide C ([2]; 1.2 μM GABA): ~2.3 fold
nH of inhibition curve ([2]; 1.2 μM GABA): −0.97 ± 0.07
fold more potent than ginkgolide A ([2]; 3 μM GABA): ~32 fold
fold more potent than ginkgolide C ([2]; 3 μM GABA): ~3.8 fold
nH of inhibition curve ([2]; 3.0 μM GABA): −0.78 ± 0.06
fold more potent than ginkgolide A ([2]; 10 μM GABA): ~6.7 fold
fold more potent than ginkgolide C ([2]; 10 μM GABA): ~4 fold
nH of inhibition curve ([2]; 10 μM GABA): −0.83 ± 0.06
bottom plateau of the inhibition curve ([2]; 10 μM GABA, five out of seven oocytes, up to 3 mM): approximately 30 % of Imax
level of inhibition ([3]; 5 μM ginkgolide, 1 μM GABA, five co-applications after 40 s preincubation): 61.3 ± 1.7%
use-dependence ([3]; 5 μM ginkgolide, 1 μM GABA): not obviously use-dependent
E′ (opening equilibrium constant with ginkgolide bound) ([4]; Scheme 2, calculated): 1.3
Ka′ (agonist equilibrium constant with ginkgolide bound) ([4]; Scheme 2, calculated): 8.3 µM
R (= Ka/Ka′) ([4]; Scheme 2, fitted): 0.39 ± 0.02
S (= E/E′) ([4]; Scheme 2, fitted): 8.6 ± 0.6
E′ (opening equilibrium constant with ginkgolide bound) ([4]; Scheme 3, calculated): 1 × 10^−9
Ka′ (agonist equilibrium constant with ginkgolide bound) ([4]; Scheme 3, calculated): 12.9 µM
R (= Ka/Ka′) ([4]; Scheme 3, fitted): 0.25 ± 0.01
S (= E/E′) ([4]; Scheme 3, fitted): 1.0 × 10^10 ± 1.4 × 10^16
Ka′ (agonist equilibrium constant with ginkgolide bound) ([4]; Scheme 4, calculated): 8.3 µM
R (= Ka/Ka′) ([4]; Scheme 4, fitted): 0.39 ± 0.02
Inhibition (%) ([5]; 1 μM GABA, 5 μM ginkgolide): 55.5 ± 3.4%
Recovery time (10–90% rise interval) ([5]; 1 μM GABA, 5 μM ginkgolide): 42.8 ± 8.6 s
Inhibition (%) ([5]; 3 μM GABA, 5 μM ginkgolide): 35.2 ± 6.8%
Recovery time (10–90% rise interval) ([5]; 3 μM GABA, 5 μM ginkgolide): 21.3 ± 4.4 s
Inhibition (%) ([5]; 3 μM GABA, 50 μM ginkgolide): 54.6 ± 7.5%
Recovery time (10–90% rise interval) ([5]; 3 μM GABA, 50 μM ginkgolide): 29.4 ± 3.8 s
